Test results reported in patent publication US20210030718A1, “COMBINATIONS FOR TREATING CANCER” (ASTRAZENECA AB, priority 2018, published 2021).

Experiments:
OCILy10 tumor cells = assay: OCILy10 subcutaneous tumor model, efficacy study; type: in vivo, C.B.-17 SCID female mice; settings: OCILy10 s.c. in C.B.-17 SCID mice; acalabrutinib 12.5 mg/kg po bid; AZD5991 IV once weekly
Experimental: 5×10^6 OCILy10 tumor cells were injected subcutaneously in the right flank of C.B.-17 SCID female mice in a volume of 0.1 mL containing 50% matrigel. Tumor volumes (measured by caliper), animal body weight, and tumor condition were recorded twice weekly for the duration of the studies. The tumor volume was calculated using the formula: length (mm)×width (mm)^2×0.52. For efficacy studies, growth inhibition from the start of treatment was assessed by comparison of the differences in tumor volume between control and treated groups. Dosing began when mean tumor size reached approximately 150-180 mm^3. CR=complete response. AZD5991 was formulated in 30% HPBCD (hydroxypropyl beta-cyclodextrin) in water for injection and adjusted to pH 9.0 up to a concentration of 30 mg/mL. AZD5991 was dosed IV once weekly. Acalabrutinib was formulated in 0.5% hydroxypropyl methyl cellulose/0.2% Tween 80, and dosed twice a day (bid) on an 8/16 hr split as an oral (po) administration at a volume of 10 mL/kg at a dose of 12.5 mg/kg.

cleaved caspase-3 = assay: Western blot time course of cleaved caspase-3 in OCILy10 and TMD8; type: cell-based; settings: 1 μM AZD5991 for 8 hr, alone or after 24-hour pre-treatment with 100 nM acalabrutinib
Experimental: Two BTK inhibitor-sensitive ABC-DLBCL cell lines (OCILy10 and TMD8) were treated for an 8-hour time course with either 1 μM AZD5991 alone or following a 24-hour pre-treatment with 100 nM acalabrutinib (since exposure for 24 hours was sufficient to induce maximal BH3-only protein levels). Cells were harvested for protein lysates at varying time points (0, 0.5, 1, 2, 4, and 8 hours) post-AZD5991 treatment, normalized for protein concentration using the BCA Protein Assay Kit, and run for western blots according to standard protocols. To ensure expected target engagement of acalabrutinib, the blots were probed for the proximal biomarker for activated BTK (pBTK Y223). To gauge the time to induction of apoptosis, cleaved caspase-3 was also assessed. A loading control (vinculin) was also utilized for normalization.

Bim and Bmf = assay: Western blot of BH3-only protein levels in DLBCL cell lines; type: cell-based; settings: 100 nM for 24 hours; OCILy10 and TMD8 relative to the insensitive cell line Karpas422
Experimental: OCILy10, TMD8, and Karpas422 were treated with either vehicle or 100 nM acalabrutinib for 2-72 hours. Protein lysates were harvested at multiple time points in that interval, protein concentration was determined using the BCA Protein Assay Kit, and western blots were performed according to standard protocol to assess the effects on Bcl2 family protein levels. Each sample was normalized to vinculin as a loading control, and then protein levels of acalabrutinib-treated samples were calculated relative to those of vehicle-treated samples.
Each of the three cell lines were then treated with 100 nM acalabrutinib for 24 hours, and BH3-only protein levels were assessed. The levels of pro-apoptotic BH3-only proteins Bim and Bmf were increased in the two acalabrutinib-sensitive DLBCL cell lines relative to the insensitive cell line, priming the cells for apoptosis (FIG. 1). Acalabrutinib increases protein levels of pro-apoptotic proteins, including Bim and Bmf, in BTK inhibitor-sensitive DLBCL cell lines that leads to priming of cells for apoptosis. The results of Example 1 illustrate that diffuse large B-cell […] (DLBCL) cell lines display a differential sensitivity to acalabrutinib.

TMD8 = assay: CellTiter-Glo viability, 72 hours; type: cell-based; settings: Homo sapiens, TMD8, ABC-DLBCL
Experimental: (§1) Two ABC-DLBCL (OCILy10 and TMD8) cell lines and one GCB-DLBCL (Karpas422) cell line were treated with either vehicle (DMSO) or a 10-point, ½ log serially dilution of acalabrutinib for 72 hours with a CellTiter-Glo viability readout.

Karpas422 = assay: CellTiter-Glo viability, 72 hours; type: cell-based; settings: Homo sapiens, KARPAS-422, Karpas422, GCB-DLBCL
Experimental: as §1

OCILy10 = assay: CellTiter-Glo viability, 72 hours; type: cell-based; settings: Homo sapiens, OCI-Ly10, OCILy10, ABC-DLBCL
Experimental: as §1

GI50 (Karpas422) [nM] | SMILES | tumor growth inhibition (OCILy10 tumor cells) [%] | induction of cleaved caspase (cleaved caspase-3) | levels of pro-apoptotic BH3-only proteins Bim and Bmf (Bim and Bmf) | GI50 (TMD8) [nM] | GI50 (OCILy10) [nM]
 | Cc1c2c(nn1C)CSCc1cc(n(C)n1)CSc1cc(c3ccccc3c1)OCCCc1c(C(=O)O)n(C)c3c-2c(Cl)ccc13 (atropisomer, axis not shown; (Ra)) [AZD5991, (Ra)-17-chloro-5,13,14,22-tetramethyl-28-oxa-2,9-dithia-5,6,12,13,22-pentaazaheptacyclo[27.7.1.1^4,7.0^11,15.0^16,21.0^20,24.0^30,35]octatriaconta-1(37),4(38),6,11,14,16,18,20,23,29,31,33,35-tridecaene-23-carboxylic acid] | 44 | no positive caspase activation |  |  | 
> 31000 | CC#CC(=O)N1CCC[C@H]1c1nc(-c2ccc(C(=O)Nc3ccccn3)cc2)c2c(N)nccn12 [acalabrutinib, (S)-4-(8-amino-3-(1-but-2-ynoylpyrrolidin-2-yl)imidazo[1,5-a]pyrazin-1-yl)-N-(pyridin-2-yl)benzamide] | 79 |  | increased | 60 | 10
